The source of these data is patent US20190224222A1, “METHOD OF INHIBITING QUORUM SENSING USING D-GALACTOSE” (Seoul National University R&DB Foundation, priority 2014, published 2019).

The test system of test [1] is F. nucleatum (Fn) biofilm. In words: Fn biofilm formation induced by Fn AI-2, crystal violet staining. Format: cell-based, F. nucleatum (ATCC 25586). The note with it: Fn + Fn AI-2 10% (v/v), 48-72 h, Fn/AI-2 control 1.5, Fn 0.46. As for the experimental part:
To test biofilm formation by Fn, a Fn culture broth (2 ml; a negative control group, the number of bacteria: 2×10^7/ml), a mixture of Fn culture broth (2 ml) and F. nucleatum AI-2 (purified from F. nucleatum secretary material of F. nucleatum culture broth using a C18 Sep-Pak reverse-phase column (Waters Co., Milford, Mass.); hereinafter, referred to as ‘Fn AI-2’; 10% (v/v) with respect to the total volume of the mixture with Fn culture broth), or a mixture of Fn culture broth (2 ml) and Fn AI-2 (10% (v/v) with respect to the total volume of the mixture with Fn culture broth) and each of QSI candidates was added to a 24-well plate with a glass slip (round, 12 mm radius), and cultured under anaerobic conditions for 48-72 hours. As the QSI candidates, sugars (D-rib, D-gal, D-Glu, D-Man, or D-ara) were used in an amount of 2 mM, and the furanone compound [(5Z)-4-bromo-5-(bromomethylene)-2(5H)-furanone] was used in an amount of 2 μM.
(§1) Biofilms formed on the cover slips were stained with 10% crystal violet [Tris(4-(dimethylamino)phenyl)methylium chloride] for 10 minutes, washed three times with PBS, and destained with 1 ml of acetone-alcohol (20:80, vol/vol). The optical density at 590 nm of the destaining solution containing crystal violet was measured using a microplate reader (a Wallac Victor3 microtiter, PerkinElmer Life Sciences, Waltham, Mass.). The smaller optical density (OD590) measured at 590 nm represents more inhibition of biofilm formation, that is, higher quorum sensing inhibitory effect of the used QSI candidate.

Test [2] has as its system T. forsythia (Tf) biofilm. The test can be described thus: Tf biofilm formation induced by Fn AI-2, crystal violet staining. Format: cell-based, T. forsythia (ATCC 43037). The note with it: Tf + Fn AI-2 10% (v/v), Fur 2 μM, 48-72 h; Tf/AI-2 control 0.48, Tf 0.32. The procedure: To test biofilm formation by Tf, a test was performed in the same manner as in Example 3. That is, a Tf culture broth (2 ml; a negative control group, the number of bacteria: 2×10^8/ml), a mixture of Tf culture broth (2 ml) and Fn AI-2 (10% (v/v) with respect to the total volume of the mixture with Tf culture broth), or a mixture of Tf culture broth (2 ml) and Fn AI-2 (10% (v/v) with respect to the total volume of the mixture with Tf culture broth) and D-gal (2 mM) was added to a 24-well plate with a glass slip (round, 12 mm radius), and cultured under anaerobic conditions for 48-72 hours. For comparison, 2 mM of D-rib or 2 μM of the furanone compound [(5Z)-4-bromo-5-(bromomethylene)-2(5H)-furanone] was used instead of D-gal to perform the same test.
as §1

Test [3] relates to P. gingivalis (Pg) biofilm. The test can be described thus: Pg biofilm formation induced by Fn secretory material, transwell, crystal violet. The class given is cell-based. Particulars: Fn upper / Pg lower chamber, Fur 2 μM, 48-72 h, Fn/Pg control 0.57, Pg alone 0.30. As for the experimental part:
(§2) In order to examine efficacies of quorum sensing inhibitor (QSI) candidates on biofilm formation of periodontopathogenic bacteria which is induced by a secretory material of F. nucleatum (Fn), a test was performed using a transwell system. AI-2 naturally secreted by Fn is contained in the secretory material of Fn. Therefore, in the test using the transwell system, Fn AI-2 was not directly added to bacteria, but Fn was put in an upper chamber and Pg or Tf was put in a lower chamber. Biofilms cultured and formed in the presence or absence of QSI candidates were stained with crystal violet, followed by analysis. These conditions are to evaluate whether Pg or Tf biofilm formation is influenced by not a purified AI-2 but an AI-2-containing secretory material naturally secreted by Fn, and whether QSI candidates such as D-gal is able to inhibit the biofilm formation if the biofilm is then formed.
(§3) More specifically, the transwell system (24-well) has an upper chamber and a lower chamber which are separated from each other by a membrane of 0.4 μm. 500 μl of F. nucelatum (Fn) culture broth (the number of bacteria: 2×10^7 CFU/ml) was cultured in the upper chamber. A glass slip was placed in the lower chamber, and then the same number of P. gingivalis(Pg) or T. forsythia(Tf) was inoculated in 1 ml of medium and cultured for 48-72 hours. The same QSI candidates were added to the upper and lower chambers. As the QSI candidates, 2 mM of sugar (D-rib or D-gal) was used and 2 μM of the furanone compound [(5Z)-4-bromo-5-(bromomethylene)-2(5H)-furanone] was used. In order to examine whether biofilm formation of the bacteria in the lower chamber is influenced by Fn secretory material and QSI candidates, the biofilms formed on the glass slip were stained with crystal violet, and then quantified (see Examples 3 to 5).

In test [4] the test system is P. gingivalis (Pg) biofilm. In words: Pg biofilm formation induced by Fn AI-2, crystal violet staining. Format: cell-based, P. gingivalis (ATCC 33277). The note with it: Pg + Fn AI-2 10% (v/v), Fur 2 μM, 48-72 h; Pg/AI-2 control 2.00, Pg 0.66. As for the experimental part:
To test biofilm formation by Pg, a test was performed in the same manner as in Example 3. That is, a Pg culture broth (2 ml; negative control group, the number of bacteria: 4×10^8/ml), a mixture of Pg culture broth (2 ml) and Fn AI-2 (10% (v/v) with respect to the total volume of the mixture with Pg culture broth), or a mixture of Pg culture broth (2 ml) and Fn AI-2 (10% (v/v) with respect to the total volume of the mixture with Fn culture broth) and D-gal (2 mM) was added to a 24-well plate with a glass slip (round, 12 mm radius), and cultured under anaerobic conditions for 48˜72 hours. For comparison, 2 μM of the furanone compound [(5Z)-4-bromo-5-(bromomethylene)-2(5H)-furanone] was used instead of D-gal (2 mM) to perform the same test.
as §1

The test system of another test is S. mutans (Sm) biofilm. The test can be described thus: S. mutans biofilm formation, crystal violet staining. The class given is cell-based, Streptococcus mutans (ATCC 25175). The procedure: 2 mL (2×10^7/ml) of the culture broth of a representative cariogenic bacterium S. mutans (Sm) and 2 mL (2×10^7/ml) of the culture broth of one of normal oral flora, S. oxalis (SO) were added to a saliva-coated glass slip (round, 12 mm radius), respectively and cultured with 0 mM or 2 mM of D-galactose to form biofilms. The formed biofilms were stained with crystal violet in the same manner as in Examples 3-6 to test biofilm formation according to the presence of D-galactose. Further, the biofilms were stained with fluorescent materials using the live/dead-BacLight viability kit (Invitrogen, Grand Island, N.Y., USA), followed by analysis. For comparison, 2 μM of the furanone compound was used instead of D-galactose to perform the same test.

The next test has as its system S. oxalis (So) biofilm. In words: S. oxalis biofilm formation, crystal violet staining. Format: cell-based, Streptococcus oxalis (ATCC 9811). The note with it: So on saliva-coated glass slip, Fur 2 uM; So control 0.59. The procedure:
2 mL (2×10^7/ml) of the culture broth of a representative cariogenic bacterium S. mutans (Sm) and 2 mL (2×10^7/ml) of the culture broth of one of normal oral flora, S. oxalis (SO) were added to a saliva-coated glass slip (round, 12 mm radius), respectively and cultured with 0 mM or 2 mM of D-galactose to form biofilms. […] Further, the biofilms were stained with fluorescent materials using the live/dead-BacLight viability kit (Invitrogen, Grand Island, N.Y., USA), followed by analysis. For comparison, 2 μM of the furanone compound was used instead of D-galactose to perform the same test.

Test [5] relates to T. forsythia (Tf) biofilm. The test can be described thus: Tf biofilm formation induced by Fn secretory material, transwell, crystal violet. Format: cell-based. Particulars: Fn upper / Tf lower chamber, Fur 2 μM, 48-72 h, Fn/Tf control 0.55, Tf alone 0.17. As for the experimental part:
as §2, §3

Where [6] appears, read: sugar 2 mM, smaller OD = more inhibition of biofilm.

For the molecule `O=C[C@@H](O)[C@H](O)[C@H](O)CO` [D-ara, D-arabinose], the OD590 nm in test [1] (setting [6]) turned out to be 1.37.

As to `O=C[C@H](O)[C@@H](O)[C@H](O)[C@H](O)CO` [D-glu, D-glucose], the OD590 nm in test [1] (setting [6]) is 1.15.

With `O=C[C@@H](O)[C@@H](O)[C@H](O)[C@H](O)CO` [D-man, D-mannose], the OD590 nm in test [1] (setting [6]) is on record as 1.16.

Turning to `O=C1C=C(Br)/C(=C/Br)O1` [Fur, (5Z)-4-bromo-5-(bromomethylene)-2(5H)-furanone, reference compound], the OD590 nm in test [2] was determined as 0.35; in test [1] (Fur 2 μM), 0.49; in test [3], 0.30; in test [4] it was 0.98; with S. mutans (Sm) biofilm (Sm on saliva-coated glass slip, Fur 2 μM, Sm control 0.48), 0.51. Besides, the “inhibitory effect on Sm biofilm formation, in words” value with S. mutans (Sm) biofilm (crystal violet, D-gal 2 mM, furanone compound 2 μM) is “hardly exhibited the inhibitory effect”. The figures for the OD590 (in the test on S. oxalis (So) biofilm; in test [5]) were 0.64 and 0.39, respectively.
